Source: patent US9827320B2, “Compositions with reduced bitter taste perception” (The Procter & Gamble Company, priority 2014, dated 2017)
Structures can show the parent of a compound that is named as a salt.

Test system: Human fungiform taste bud cells
Assay: Assay for Taste Receptors (calcium fluorescence, FLIPR)
Assay type: cell-based
Settings: FIG. 5B; 0.5 mM 1,10-phenanthroline, 0.5 mM saccharin, 3% propylene glycol; without polyquaternium-2

Structure (SMILES)	bitterness of the component itself
c1cnc2c(c1)ccc1cccnc12 [1,10-phenanthroline]	very bitter
CC(O)CO (stereo not drawn) [propylene glycol]	very bitter
O=C1NS(=O)(=O)c2ccccc21 [saccharin]	very bitter

Same assay, conditions: FIG. 5C; 2 mM; without polyquaternium-2

Structure (SMILES)	bitterness of the component itself
CNC(N)=S [N-methylthiourea]	only slightly bitter
N#C[C@H](O[C@@H]1O[C@H](CO[C@@H]2O[C@H](CO)[C@@H](O)[C@H](O)[C@H]2O)[C@@H](O)[C@H](O)[C@H]1O)c1ccccc1 [amygdalin]	only slightly bitter
N=C(NCCCCCCNC(=N)NC(=N)Nc1ccc(Cl)cc1)NC(=N)Nc1ccc(Cl)cc1 [chlorhesidice]	only slightly bitter
Cc1ccccc1C(OCCN(C)C)c1ccccc1 (stereo not drawn) [orphenadrine hydrochloride]	most bitter component
CCN(CC)CCNC(=O)c1ccc(N)cc1 [procainamide hydrochloride]	only slightly bitter
O=C1CCCCCN1 [ε-Caprolactam]	only slightly bitter
